Results taken from US10966951B2, “Compositions and methods for lowering triglycerides in a subject having reduced kidney function” (Amarin Pharmaceuticals Ireland Limited, priority 2017, dated 2021).

Assay: Essential fatty acid parameters in RBC, 6-week AAMI study (Example 2)
Assay type: in vivo, human
Protocol: A single-center, 6-week, double-blind, randomized, parallel-group, placebo-controlled, dose-ranging pilot study was performed to evaluate the efficacy, tolerability, and safety of >96% E-EPA in subjects with subjective and objective memory impairment according to generally accepted criteria for Age-Associated Memory Impairment (“AAMI”). The primary objective of the study was to determine the effect of >96% E-EPA 1 g, 2 g, and 4 g daily, compared to placebo, on cognitive performance in subjects with AAMI.
Ninety-four subjects were randomized into one of six groups: 1 g E-EPA daily (n=23), 2 g E-EPA daily (n=24), 4 g E-EPA daily (n=24), 1 g placebo daily (n=7), 2 g placebo daily (n=8), and 4 g placebo daily (n=8). E-EPA was provided as 500 mg soft gel capsules containing >96% E-EPA and 0.2% dl-α-tocopherol as an antioxidant. Placebo capsules contained 467 mg of liquid paraffin and 0.2% dl-α-tocopherol. Ninety-one subjects completed the study. Two subjects in the 2 g E-EPA group and one subject in the 2 g placebo group discontinued the study.
Blood samples (10 mL) were collected at Visit 1 (screening) and at Visits 4, 5, and 6. Analysis was performed by MSR Lipid Analysis, Scottish Crop Research Institute, Dundee, UK. The screening sample acted as baseline for the EFA measurements. Lipid was extracted from plasma, serum, and RBC suspensions and converted into fatty acid methyl esters which were analyzed by gas chromatography to give fatty acid profiles as micrograms fatty acid per gram of sample ([…]) and normalized area percent.
RBC and plasma EFA data were collected at baseline, Day 14, 28, and 42 and summarized by visit for each treatment group. Change from baseline and percent change from baseline were also summarized. ANCOVA comparison of E-EPA dose groups and E-EPA versus placebo was performed.

CC/C=C\C/C=C\C/C=C\C/C=C\C/C=C\CCCC(=O)OCC [E-EPA, ethyl eicosapentaenoate]
AA Mean change from Baseline, Mean (SD) (1 g daily, Day 14): −8.1 (21.95) μg/g | DGLA Mean change from Baseline, Mean (SD) (1 g daily, Day 14): −2.7 (3.82) μg/g | DHA Mean change from Baseline, Mean (SD) (1 g daily, Day 14): −4.6 (9.76) μg/g | EPA/AA Mean change from Baseline, Mean (SD) (1 g daily, Day 14): 0.1 (0.04) | AA Mean change from Baseline, Mean (SD) (1 g daily, Day 28): −17.0 (20.69) μg/g | DGLA Mean change from Baseline, Mean (SD) (1 g daily, Day 28): −3.8 (3.31) μg/g | DHA Mean change from Baseline, Mean (SD) (1 g daily, Day 28): −6.4 (11.57) μg/g | EPA/AA Mean change from Baseline, Mean (SD) (1 g daily, Day 28): 0.1 (0.05) | DGLA Mean change from Baseline, Mean (SD) (1 g daily, Day 42): −3.5 (4.51) μg/g | DHA Mean change from Baseline, Mean (SD) (1 g daily, Day 42): −7.0 (12.20) μg/g | EPA/AA Mean change from Baseline, Mean (SD) (1 g daily, Day 42): 0.1 (0.06) | DGLA Baseline Mean (SD) (1 g daily): 23.0 (5.19) μg/g | EPA/AA Baseline Mean (SD) (1 g daily): 0.1 (0.07) | AA LS Mean, 1 g versus 4 g (1 g versus 4 g): 8.4 µg/g | DGLA LS Mean, 1 g versus 4 g (1 g versus 4 g): 1.5 µg/g | DHA LS Mean, 1 g versus 4 g (1 g versus 4 g): 1.0 µg/g | EPA/AA LS Mean, 1 g versus 4 g (1 g versus 4 g): −0.18 | AA Mean change from Baseline, Mean (SD) (2 g daily, Day 14): −3.1 (25.84) μg/g | DGLA Mean change from Baseline, Mean (SD) (2 g daily, Day 14): −2.6 (3.54) μg/g | DHA Mean change from Baseline, Mean (SD) (2 g daily, Day 14): −2.0 (9.46) μg/g | EPA/AA Mean change from Baseline, Mean (SD) (2 g daily, Day 14): 0.2 (0.04) | DGLA Mean change from Baseline, Mean (SD) (2 g daily, Day 28): −4.5 (3.58) μg/g | DHA Mean change from Baseline, Mean (SD) (2 g daily, Day 28): −6.2 (9.34) μg/g | EPA/AA Mean change from Baseline, Mean (SD) (2 g daily, Day 28): 0.02 (0.06) | DGLA Mean change from Baseline, Mean (SD) (2 g daily, Day 42): −5.3 (3.65) μg/g | DHA Mean change from Baseline, Mean (SD) (2 g daily, Day 42): −6.3 (9.42) μg/g | EPA/AA Mean change from Baseline, Mean (SD) (2 g daily, Day 42): 0.3 (0.06) | DGLA Baseline Mean (SD) (2 g daily): 23.0 (5.76) μg/g | EPA/AA Baseline Mean (SD) (2 g daily): 0.1 (0.06) | AA LS Mean, 2 g versus 4 g (2 g versus 4 g): 9.8 µg/g | DGLA LS Mean, 2 g versus 4 g (2 g versus 4 g): 1.5 µg/g | DHA LS Mean, 2 g versus 4 g (2 g versus 4 g): 1.0 µg/g | EPA/AA LS Mean, 2 g versus 4 g (2 g versus 4 g): −0.11 | DGLA Mean change from Baseline, Mean (SD) (4 g daily, Day 14): −5.3 (4.10) μg/g | DHA Mean change from Baseline, Mean (SD) (4 g daily, Day 14): −6.9 (9.13) μg/g | EPA/AA Mean change from Baseline, Mean (SD) (4 g daily, Day 14): 0.3 (0.07) | DGLA Mean change from Baseline, Mean (SD) (4 g daily, Day 28): −7.1 (4.63) μg/g | DHA Mean change from Baseline, Mean (SD) (4 g daily, Day 28): −8.7 (11.63) μg/g | EPA/AA Mean change from Baseline, Mean (SD) (4 g daily, Day 28): 0.4 (0.11) | DGLA Mean change from Baseline, Mean (SD) (4 g daily, Day 42): −8.0 (4.98) μg/g | EPA/AA Mean change from Baseline, Mean (SD) (4 g daily, Day 42): 0.4 (0.14) | DGLA Baseline Mean (SD) (4 g daily): 24.0 (5.77) μg/g | EPA/AA Baseline Mean (SD) (4 g daily): 0.1 (0.04)
